The values below come from patent US20100256196A1, “Biomarkers for Atherosclerosis” (IKFE, priority 2008, published 2010).

Data set [1] has as its system MIF. To be noted: six week treatment, eight non-diabetic patients with obesity; cited from earlier work.
For data set [2], the system named is patients with type 2 diabetes and established atherosclerosis. The data set can be described thus: Clinical and biochemical observation parameters, double-blind placebo-controlled study, 4 weeks add-on treatment. The conditions noted are these: mean ± SD; for Glucose: fasting; for HOMAIR: insulin resistance score; for IL-6 / MIF / MMP-9: plasma protein; for Adiponectin / Angiotensin II / Complement factor C3 / Insulin / Intact proinsulin / P-seclectin / sCD40L: plasma. The class given is in vivo, human.

The subject of data set [3] is NFκB and NFκB-modulated cytokines in circulating peripheral mononuclear cells. The data set can be described thus: mRNA expression in circulating mononuclear cells (CD14+ monocytes/macrophages), calibrator-normalized relative quantification by LightCycler PCR. The conditions noted are these: normalized ratio, reference gene β-actin, mean ± SD. The class given is in vivo, human. The source says:
Blood for the measurement of fasting glucose, MMP-9, and hsCRP was taken at baseline and after 3, 7, 10, 14 and 28 days of study treatment. Blood for assessment of the mRNA expression profile of circulating mononuclear cells as well as for assessment of circulating plasma levels of HbAlc, Insulin, Intact Proinsulin, Adiponectin, IL-6, sCD40L, P-Selectin, MIF, Angiotensin II, complement factor 3, and blood lipids were obtained at baseline and at the end of the study. Insulin resistance was calculated using the HOMAIR score at baseline and study endpoint as published previously (29, 30).
Isolation of MNC from whole blood was performed as a density gradient centrifugation by means of the ACCUSPIN System-HISTOPAQUE-1077 (Sigma-Aldrich Chemie GmbH, Steinheim, Germany). The isolation of macrophages and monocytes from the collected cells was performed by MACS magnetic cell sorting with CD14 MicroBeads (human) (Miltenyi Biotec GmbH, Bergisch Gladbach, Germany). The CD14 positive (CD14+) cells (macrophages and monocytes) were first magnetically labeled with MACS CD14 MicroBeads. The cell suspension was loaded on a MS MACS Column which was placed in the magnetic field of a MiniMACS Separator. The magnetically labeled CD14+ cells were retained in the column and separated from the unlabelled cell fraction.
The mRNA isolation from macrophages and monocytes was performed with the High Pure RNA Isolation Kit (Roche Applied Science, Penzberg, Germany). The cells were first lysed and the intact and undegraded RNA was adsorbed to a glass fibre fleece. Simultaneously, RNAses were inactivated. Furthermore, residues of contaminating DNA were digested and the RNA was purified from salts, proteins and other impurities. Purity of the isolated mRNA was assessed by real-time PCR (LightCycler II, Roche Diagnostics, Mannheim, Germany). The transcription of mRNA in cDNA was performed on a thermocycler (Biozym Diagnostik GmbH, Oldendorf, Germany) according to a standardized protocol (‘Transcriptor First Strand cDNA Synthesis Kit’, Instruction Manual Version 1, 2004, Roche Applied Science, Penzberg, Germany).
Sequence specific primers were designed by TIB MOLBIOL (Syntheselabor GmbH, Berlin, Germany) to amplify the gene sequences of Rel-A, p105, IκB-α, IκB-β and IL-6. The primers for TNF-α were taken from “Rapid Cycle Real-Time PCR Methods and Applications Quantification” (31). The primers for MIF and MMP-9 were reproduced from previous reports (12, 32). A list of the primers used for the quantification experiments, the primer-specific PCR protocols and the specific amplification product melting points are provided in Table 1. An additional agarose gel electrophoresis assay was performed to verify the correct length of the amplification products.
The RNA quantification in this study, was performed by means of a calibrator-normalized relative quantification method based on the LightCycler II system (Roche Diagnostics, Mannheim, Germany), where quantification of a target and a reference gene is a function of PCR efficiency and the sample crossing point. The sample crossing point is the amplification cycle during an amplification assay, at which the fluorescence of a probe rises above background fluorescence. This occurs usually at the second derivative maximum (fastest change in fluorescence). […] In these experiments, β-actin is the most abundant protein in eukaryotic cells with constant expression (33). […] The principle of this method is the determination of the relative amount of the target gene and the reference gene for each sample and for the calibrator. […] All experiments were performed in triple replications.
Data are presented as arithmetic mean±standard deviation (SD) for continuous variables or mean±SEM for percent changes from baseline and as the number/proportion of patients for categorical variables.

The conditions of data set [4]: in vivo; cited from earlier work.
[5] abbreviates: endpoint, after 4 weeks 45 mg pioglitazone add-on.
The mark [6] stands for this setting: endpoint, after 4 weeks of pioglitazone.

As for `CN(C)C(=N)N=C(N)N` [metformin], in data set [1], the “Plasma concentration of MIF and transcription of MIF mRNA in mononuclear cells” value is “reduced”.

For `CCc1ccc(CCOc2ccc(CC3SC(=O)NC3=O)cc2)nc1` (stereo not drawn) [pioglitazone], in data set [2] (setting [5]), the BMI is recorded as 31.4 ± 4.5 kg/m^2, the Diastolic blood pressure is 80 ± 11 mmHg, the HDL cholesterol is 1.26 ± 0.26 mmol/L and the HbA1c was determined as 6.8 ± 0.9%. Also, in data set [2] (setting [5]), the LDL cholesterol turned out to be 2.52 ± 0.76 mmol/L, the Systolic blood pressure was found to be 137 ± 18 mmHg, the “Total Cholesterol” value was 4.78 ± 1.09 mmol/L and the hsCRP worked out at 1.9 ± 1.7 mg/L. In addition, in data set [2] (setting [5]), the sICAM is 319 ± 86 µg/L, the sVCAM was 943 ± 452 µg/L, the Glucose came out at 122 ± 35 mg/dL and the HOMAIR turned out to be 3.9 ± 2.6. In data set [2] (setting [5]), the IL-6 came out at 3.2 ± 0.1 ng/L, the MIF was 9.6 ± 3.5 µg/L, the MMP-9 stood at 284 ± 101 µg/L and the Adiponectin came out at 22.1 ± 9.1 µg/mL. Moreover, in data set [2] (setting [5]), the “Angiotensin II” value is 8.0 ± 8.8 µg/L, the “Complement factor C3” value was found to be 1.5 ± 0.3 g/L, the Insulin turned out to be 12 ± 7 μU/ml and the Intact proinsulin was 19 ± 17 pmol/L. In data set [2] (setting [5]), the P-seclectin was determined as 93 ± 22 µg/L and the sCD40L turned out to be 1.1 ± 1.1 µg/L. Further, in data set [2] (pioglitazone arm, baseline), the Glucose was found to be 142 ± 40 mg/dL, the HOMAIR is recorded as 5.9 ± 4.4, the BMI turned out to be 31.0 ± 4.3 kg/m^2 and the Diastolic blood pressure is on record as 83 ± 11 mmHg. Besides, in data set [2] (pioglitazone arm, baseline), the HDL cholesterol came to 1.18 ± 0.24 mmol/L, the HbA1c was determined as 7.0 ± 1.1%, the LDL cholesterol worked out at 2.46 ± 0.80 mmol/L and the Systolic blood pressure was found to be 144 ± 15 mmHg. Further, in data set [2] (pioglitazone arm, baseline), the “Total Cholesterol” value turned out to be 4.63 ± 0.99 mmol/L, the hsCRP is 2.9 ± 1.7 mg/L, the sICAM was determined as 326 ± 90 µg/L and the sVCAM turned out to be 915 ± 409 µg/L. In data set [2] (pioglitazone arm, baseline), the IL-6 came out at 3.3 ± 0.5 ng/L, the MIF amounted to 10.4 ± 5.3 µg/L, the MMP-9 is 344 ± 118 µg/L and the Adiponectin is 8.7 ± 3.5 µg/mL. In addition, in data set [2] (pioglitazone arm, baseline), the “Angiotensin II” value was found to be 10.2 ± 9.2 µg/L, the “Complement factor C3” value was 1.6 ± 0.4 g/L, the Insulin came out at 17 ± 10 μU/ml and the Intact proinsulin amounted to 30 ± 37 pmol/L. In data set [2] (pioglitazone arm, baseline), this compound yielded a P-seclectin of 95 ± 20 µg/L and a sCD40L of 1.6 ± 1.8 µg/L. Also, in data set [3] (setting [6]), the “IL-6 mRNA expression” value is 1.05 ± 0.46, the “IκB-β mRNA expression” value was 3.30 ± 2.41, the “MIF mRNA expression” value amounted to 0.84 ± 0.31 and the “MMP-9 mRNA expression” value was found to be 1.48 ± 1.18. In data set [3] (setting [6]), the “RelA (p65 subunit of NF-κB) mRNA expression” value is reported as 0.95 ± 0.44, the “TNFα mRNA expression” value was 1.70 ± 0.93 and the “p105 (p50 subunit of NF-κB) mRNA expression” value turned out to be 1.33 ± 0.46. In data set [3] (pioglitazone arm, baseline), the “IL-6 mRNA expression” value was 1.13 ± 0.52, the “IκB-β mRNA expression” value is reported as 3.17 ± 2.05, the “MIF mRNA expression” value is 0.98 ± 0.40 and the “MMP-9 mRNA expression” value was determined as 2.29 ± 2.68. In data set [3] (pioglitazone arm, baseline), the “RelA (p65 subunit of NF-κB) mRNA expression” value was found to be 1.20 ± 0.74, the “TNFα mRNA expression” value turned out to be 1.88 ± 1.20 and the “p105 (p50 subunit of NF-κB) mRNA expression” value was 1.63 ± 0.80.

`Cc1c(C)c2c(c(C)c1O)CCC(C)(COc1ccc(CC3SC(=O)NC3=O)cc1)O2` (stereo not drawn) [troglitazone]: the “Reason for being taken from the market” value in data set [4] is “hepatotoxiciy”.
